By NOAEL is commonly meant the highest dose or exposure tested at which no adverse effect was seen.

Consider 1 compound from EPA's ToxValDB 9.5 (doi:10.2903/j.efsa.2015.3958).

The test system of one data set is Folsomia candida. As to conditions: chronic/long-term; duration: 28 days.
A further data set relates to Apis mellifera. As to conditions: acute; oral; unspecified; mortality.
Another data set relates to Pimephales promelas. As to conditions: chronic/long-term; duration: 32 days; growth.
A further data set deals with Hypoaspis aculeifer. As to conditions: acute; duration: 14 days.
For a further data set, the system named is Daphnia magna. As to conditions: chronic/long-term; duration: 21 days; reproduction.

Bounds are passed on as bounds.

For the compound `COc1nc(C)nc(NC(=O)NS(=O)(=O)c2ccccc2OCCCl)n1` [Triasulfuron], the LC50 was > 1000 mg/kg in the data set with Tagia sp. (acute, duration: 14 days, mortality) and > 5000 mg/kg in the data set with Colinus virginianus (acute, oral, diet, mortality). Moreover, the NOEC in the data set with Tagia sp. (chronic/long-term, duration: 8 weeks) was found to be 50.8 mg/kg; with Folsomia candida, 100 mg/kg; with Pimephales promelas, 36.6 mg/L; with Hypoaspis aculeifer, 100 mg/kg; in the data set with Daphnia magna, 10 mg/L. The LD50 was > 5000 mg/kg with Rattus norvegicus (acute, mortality); > 100 µg/piece in the data set with Apis mellifera; > 2150 mg/kg with Colinus virginianus (acute, oral, mortality). For the same compound, the NOAEL in the data set with Rattus norvegicus (chronic) amounted to 50 mg/kg-day. Moreover, the NOEL in the data set on Colinus virginianus (reproduction developmental) was 94 mg/kg-day.
